The source of these data is US20190247376A1, “NICOTINIC ACETYLCHOLINE RECEPTOR AGONIST ATTENUATES ILC2-DEPENDENT AIRWAY HYPERREACTIVITY” (University of Southern California, priority 2016, published 2019).

Assay type in all cases: in vivo, mouse
In one test the test system is Rag2 deficient mice. Nature of the test: IL-33-induced ILC2-mediated AHR and airway inflammation in Rag2-deficient mice. As to the method:
FIGS. 3A-3H: α7nAChR agonist treatment ameliorates ILC2s mediated AHR. (FIG. 3A) Rag2-deficient mice were intranasally challenged with recombinant mouse IL-33 or PBS and also received α7nAChR agonist (125 μg) or PBS on days 1-3 according to scheme 3A. Measurement of lung function and analyses of bronchoalveolar lavage fluid (BALF) and lung histology followed on day 4. (FIGS. 3B-3C) Lung resistance and dynamic compliance. (FIG. 3D) Total number of cells and eosinophils in BALF. (FIG. 3E) Hematoxylin and eosin-stained lung sections (×200). Scale bars represent 50 μm. (FIG. 3F) Quantification of lung histopathology shown as number of inflammatory cells per 250 μm^2 and thickness of airway epithelium (μm). (FIG. 3G) Total number and frequency of lung ILC2s. (FIG. 3H) Percentage of IL-5^+ and IL-13^+ lung ILC2s determined by flow cytometry. Data are representative of at least four independent experiments and are presented as means±SEM (n=8; Student's test *, p<0.05; **, p<0.01; ***, p<0.001).
As reported previously^6-9,11,12,34,35, the IL-5 and IL-13 cytokines produced by activated ILC2s are essential for eosinophilic inflammation and AHR development. Applicants investigated whether the attenuated ILC2 function by α7nAChR stimulation in vitro could result in inhibition of ILC2-mediated AHR and allergic inflammation. Rag2 deficient mice (devoid of T and B cells) were given intranasal (i.n.) rm-IL-33, with or without α7nAChR agonist for three consecutive days (FIG. 3A). As IL-33 administration specifically induces ILC2s, thereby causing AHR, with this model Applicants can readily explore the effect of an α7nAChR agonist in ILC2-mediated AHR. One day after the last challenge, lung function was evaluated by direct measurements of lung resistance (RL) and dynamic compliance (Cdyn), as described in the materials and methods section. […] These findings concur with the reduction of AHR and eosinophil counts in BALF (FIGS. 3B-3D). Thus, α7nAChR agonist represses IL-5 and IL-13 production, eosinophil recruitment, and ILC2-dependent AHR.
(§1) Mice were intranasally (i.n.) administered carrier-free recombinant mouse IL-33 (BioLegend, San Diego Calif., 0.5 µg per mouse in 50 µL) with or without […] of α7nAChR agonist (kindly provided by Lin Chen) on three consecutive days. Mice were intranasally (i.n.) administered carrier-free recombinant mouse IL-25 (BioLegend, San Diego Calif., 5 µg per mouse in 50 µL) with or without […] of α7nAChR agonist on three consecutive days. For Alternaria alternata experiments, mice were i.n. administered Alternaria alternata (Greer Labs, Lenoir, N.C., 100 μg per mouse in 50 μL) with or without 125 µg α7nAChR agonist for four consecutive days. One day after the last challenge, mice were anesthetized using i.p. injection of ketamine (10 mg mL^−1) and xylazine (1 mg mL^−1). Measurements of airway resistance and dynamic compliance were conducted with the Fine Pointe RC System (Buxco Research Systems, Wilmington, N.C.), in which mice were mechanically ventilated using a modified version as previously described^36,67. Mice were sequentially challenged with aerosolized PBS (baseline), followed by increasing doses of methacholine. Maximum lung resistance (RL) and minimum compliance (Cdyn) values were recorded during a three-minute period after each methacholine challenge.
After measurements of AHR, the trachea was canulated and the lungs lavaged three times with 1 mL ice cold PBS to collect BALF cells as previously described^68. […]

Test [1] relates to BALB/cByJ and α7nAChR−/− mice. In words: IL-33-induced AHR in WT and α7nAChR-deficient mice. Conditions: rm-IL-33, agonist 125 μg days 1-3. As to the method: FIGS. 4A-4E: α7nAChR expression is critical for GTS-21 action on ILC2s in vivo. BALB/cByJ and α7nAChR^−/− mice were intranasally challenged with rm-IL-33 or PBS, and also given α7nAChR agonist (125 μg) or PBS on days 1-3. Measurement of lung function and analysis of BAL followed on day 4. (FIG. 4A) Lung resistance. (FIG. 4B) Total number of eosinophils in BALF. (FIG. 4C) Rag^−/− GC^−/− mice were received ILC2s from either WT or α7nAChR^−/− mice. After the adoptive transfer, mice were intranasally challenged with rm-IL-33 or PBS; they also received α7nAChR agonist (125 μg) or PBS on days 1-3. Measurement of lung function and analysis of BAL followed on day 4, according to scheme 4C. (FIG. 4D) Lung resistance. (FIG. 4E) Total number of eosinophils in BALF. Data are representative of at least three independent experiments and are presented as means±SEM (n=4; Student's test ***, p<0.001, WT IL-33+α7nAChR agonist vs. α7nAChR^−/− IL-33+α7nAChR agonist).
To assess whether the previously observed effects of GTS-21 are due to its actions on the α7nAChR, Applicants challenged WT and α7nAChR-deficient mice with or without rm-IL-33, and with or without α7nAChR agonist, for three consecutive days (FIGS. 4A-4B). As expected, in the WT mice, the agonist repressed IL-33-induced AHR and eosinophilic infiltration.
as §1

The test system of another test is Rag2−/− mice. In words: Alternaria alternata-induced AHR in Rag2-deficient mice. The conditions noted are these: four consecutive days.
Description: FIGS. 6A-6C: α7nAChR agonist inhibits Alternaria-induced AHR. (FIG. 6A) Rag2-deficient mice intranasally received an extract of Alternaria alternata with or without α7nAChR agonist on days 1-4 according to scheme FIG. 6A. Measurement of lung function and BALF analysis followed on day 5. (FIG. 6B) Lung resistance. (FIG. 6C) Total number of eosinophils in BALF. Total number of lung ILC2s. Data are representative of at least four independent experiments and are presented as means±SEM (n=4; Student's t test *, p<0.05; ***, p<0.001).
It has been previously reported that Alternaria alternata can induce AHR^40. Applicants further explored the anti-inflammatory effects of α7nAChR agonist in ILC2-mediated AHR with this clinically relevant allergen. Rag2^−/− mice were i.n. administered Alternaria alternata extract with or without α7nAChR agonist for four consecutive days (FIG. 6A). […] Accordingly, the number of eosinophils in BALF and lung ILC2s were increased in Alternaria-treated mice. Meanwhile, α7nAChR agonist treatment abolished eosinophils and ILC2s in the lung (FIG. 6C).
as §1, with “Measurements of airway resistance and dynamic compliance were conducted with the Fine Pointe RC System (Buxco Research Systems, Wilmington, N.C.), in which mice were mechanically ventilated using a modified version as previously described^36,67. Mice were sequentially challenged with aerosolized PBS (baseline), followed by increasing doses of methacholine.” left out

[2] abbreviates: i.n. rm-IL-33, agonist 125 μg days 1-3, day 4.
The mark [3] stands for this setting: i.n. rm-IL-33, agonist 125 μg days 1-3, measured day 4.
The mark [4] stands for this setting: i.n. rm-IL-33, agonist 125 μg days 1-3, vs untreated mice.
[5] abbreviates: i.n. Alternaria alternata extract, agonist.

As for `COc1ccc(/C=C2\CCCN=C2c2cccnc2)c(OC)c1` [GTS-21, 3-[(3E)-3-[(2,4-dimethoxyphenyl)methylidene]-5,6-dihydro-4H-pyridin-2-yl]pyridine], in the test with Rag2 deficient mice (setting [2]), the “absolute number of lung ILC2s” value is “significantly suppressed”, the “airway wall thickness (lung histology)” value is on record as “prevented”, the “eosinophilic infiltration in BALF” value was “decreased” and the “frequency of lung ILC2s” value is given as “significantly suppressed”. Besides, in the test with Rag2 deficient mice (setting [2]), the “infiltrated cells (lung histology)” value is recorded as “prevented” and the “total cell counts (TCC) in BALF” value was “decreased”. For the same compound, in the test on Rag2 deficient mice (setting [3]), the “dynamic compliance (Cdyn)” value is given as “significantly reduced” and the “lung resistance (RL)” value is on record as “significantly reduced”. In the test with Rag2 deficient mice (setting [4]), the “IL-5 producing lung ILC2s (intracellular cytokine assay)” value is on record as “significantly decreased” and the “IL-13 producing lung ILC2s (intracellular cytokine assay)” value is “significantly decreased”. Also, in test [1] (WT mice), the “IL-33-induced AHR” value was “repressed” and the eosinophilic infiltration entry is recorded as “repressed”. Besides, in test [1] (α7nAChR-deficient mice), the “IL-33-induced AHR” value is on record as “affected neither AHR nor eosinophilia” and the eosinophilia result is listed as “affected neither AHR nor eosinophilia”. Also, in the test with Rag2−/− mice (i.n. Alternaria alternata extract 100 μg, agonist 125 μg), the “AHR (lung resistance)” value is on record as “did not develop AHR”. In the test with Rag2−/− mice (setting [5]), the “eosinophils in BALF” value was “abolished” and the “lung ILC2s” value was “abolished”.
